As a reminder, the IC50 is the concentration needed to halve the response being measured.

Assay type in all cases: cell-based
In assay [1] the target is T1, EML4-ALK-BaF3 (Homo sapiens, UniProt Q9UM73).
T1 construct: expressed in transfected cells; host or cells: Ba/F3 cells; the other entry of the earlier key: EML4 (Q9HC35, Echinoderm microtubule-associated protein-like 4)
Briefly: Growth inhibition of EML4-ALK transformed BaF3 cells (MTS). Conditions: EML4-ALK-BaF3 cells, 48 hours, MTS; Table 11. The essentials: (§1)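 Ba/F3 cells (2×10^4/well) in DMEM or RPMI1640 with 10% FBS exposed to 8 compound concentrations (top 10 μM, 1/3 serial dilution, 0.1% DMSO) for 48 h at 37 °C, 5% CO2. Viability by MTS/PES, 1-4 h, OD 490 nm; triplicates. IC50 fitted from inhibition rate.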

Assay [2] deals with T2, EML4-ALK (L1196M)-BaF3 (Homo sapiens, UniProt Q9UM73, L1196M).
T2 construct: expressed in transfected cells; host or cells: Ba/F3 cells; the other entry of the earlier key: EML4 (Q9HC35, Echinoderm microtubule-associated protein-like 4)
Description: Growth inhibition of EML4-ALK (L1196M) transformed BaF3 cells (MTS). Conditions: 48 hours, Table 11, read-out: EML4-ALK (L1196M) (IC50 nM). In outline:
as §1

The target in assay [3] is T3, NPM-ALK-BaF3 (Homo sapiens, UniProt Q9UM73).
T3 construct: expressed in transfected cells; host or cells: Ba/F3 cells; the other entry of the earlier key: NPM1 (P06748, Nucleophosmin)
Briefly: Growth inhibition of NPM-ALK transformed BaF3 cells (MTS). Conditions: 48 hours, Table 11. The essentials: (§2)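 MTS absorbance at 490 nm, measured 1–4 h after reagent addition, reports growth after 48 h compound exposure (37 °C, 5% CO2) of 2×10^4 cells/well. Eight 1/3-step concentrations from a 10 μM top, 0.1% DMSO; triplicate inhibition relative to vehicle and blank gives IC50.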

For assay [4], the system named is wild type BaF3. Briefly: Growth inhibition of wild type BaF3 cells (broad-spectrum toxicity). Conditions: Mus musculus, BaF3, 48 h, MTS, Table 11. The essentials: as §2

`CC(C)S(=O)(=O)c1ccccc1CNc1nc(Nc2ccc(S(N)(=O)=O)cc2)nc2cc[nH]c12` [IO-4]: the IC50 in assay [1], in assay [2], in assay [3] and in assay [4] was above 10000 nM in each case.

`CC(C)S(=O)(=O)c1ccccc1CNc1nc(Nc2ccc(N3CCN(C)CC3)cc2)nc2cc[nH]c12` [IO-5]: the 50% inhibitory concentration (IC50) in assay [1] was determined as 4870 nM; in assay [2], 5200 nM; in assay [3], 5030 nM; in assay [4] it was 1910 nM.

`CNc1nc(Nc2ccc(N3CCC(N4CCN(C)CC4)CC3)cc2OC)nc2cc[nH]c12` [IQ-2]: the IC50 in assay [1], in assay [2], in assay [3] and in assay [4] was above 10000 nM in each case.

Regarding `CNc1nc(Nc2ccc(N3CCC(O)CC3)cc2)nc2cc[nH]c12` [IQ-3], the 50% inhibitory concentration (IC50) in assay [1], in assay [2], in assay [3] and in assay [4] was above 10000 nM in each case.

For `CNc1nc(Nc2ccc(S(N)(=O)=O)cc2)nc2cc[nH]c12` [IQ-4], the IC50 in assay [1], in assay [2], in assay [3] and in assay [4] was above 10000 nM in each case.

In the case of `CNc1nc(Nc2ccc(C(=O)N3CCOCC3)cc2OC)nc2cc[nH]c12` [IQ-5], the IC50 in assay [1], in assay [2], in assay [3] and in assay [4] was above 10000 nM throughout.

For the compound `CNc1nc(Nc2ccc(C(=O)N3CCN(C)CC3)cc2OC)nc2cc[nH]c12` [IQ-6], the half-maximal inhibitory concentration (IC50) in assay [1], in assay [2], in assay [3] and in assay [4] was above 10000 nM each time.

`CCNc1nc(Nc2ccc(N3CCN(C)CC3)cc2OC)nc2cc[nH]c12` [IR-1]: the half-maximal inhibitory concentration (IC50) in assay [1], in assay [2], in assay [3] and in assay [4] was above 10000 nM each time.

With `CCNc1nc(Nc2ccc(N3CCC(N4CCN(C)CC4)CC3)cc2OC)nc2cc[nH]c12` [IR-2], the IC50 in assay [1], in assay [2], in assay [3] and in assay [4] was above 10000 nM each time.

In the case of `CCNc1nc(Nc2ccc(N3CCC(O)CC3)cc2)nc2cc[nH]c12` [IR-3], the IC50 in assay [1], in assay [2], in assay [3] and in assay [4] was above 10000 nM each time.

Regarding `COc1cc(N2CCN(C)CC2)ccc1Nc1nc(NC2CC2)c2[nH]ccc2n1` [IS-1], the IC50 in assay [1] was around 2550 nM; in assay [2] it was 1700 nM; in assay [3], 1790 nM; in assay [4], 5330 nM.

Take `COc1cc(N2CCC(N3CCN(C)CC3)CC2)ccc1Nc1nc(NC2CC2)c2[nH]ccc2n1` [IS-2]: the IC50 in assay [1] was above 10000 nM; in assay [2], 5030 nM; in assay [3], above 10000 nM; in assay [4], above 10000 nM.

Regarding `OC1CCN(c2ccc(Nc3nc(NC4CC4)c4[nH]ccc4n3)cc2)CC1` [IS-3], the IC50 in assay [1] is 4480 nM; in assay [2], 9710 nM; in assay [3] it was above 10000 nM; in assay [4], 11800 nM.

In the case of `NS(=O)(=O)c1ccc(Nc2nc(NC3CC3)c3[nH]ccc3n2)cc1` [IS-4], the IC50 in assay [1], in assay [2], in assay [3] and in assay [4] was above 10000 nM each time.

For `COC(=O)c1ccccc1Sc1nc(Nc2ccc(N3CCN(C)CC3)cc2OC)nc2cc[nH]c12` [IU-1], the half-inhibitory concentration (IC50) in assay [1], in assay [2], in assay [3] and in assay [4] was above 10000 nM in each case.

For `COC(=O)c1ccccc1Sc1nc(Nc2ccc(N3CCC(N4CCN(C)CC4)CC3)cc2OC)nc2cc[nH]c12` [IU-2], the IC50 in assay [1] was 4580 nM; in assay [2], 2670 nM; in assay [3], 4900 nM; in assay [4], around 8340 nM.

As for `COC(=O)c1ccccc1Sc1nc(Nc2ccc(N3CCC(O)CC3)cc2)nc2cc[nH]c12` [IU-3], the IC50 in assay [1] was 4900 nM; in assay [2], 4180 nM; in assay [3] it was 8270 nM; in assay [4] it was 6520 nM.

For `COC(=O)c1ccccc1Sc1nc(Nc2ccc(S(N)(=O)=O)cc2)nc2cc[nH]c12` [IU-4], the 50% inhibitory concentration (IC50) was 9110 nM in assay [1], 5990 nM in assay [2], above 10000 nM in assay [3] and above 10000 nM in assay [4].

Turning to `COC(=O)c1ccccc1Sc1nc(Nc2ccc(N3CCC(N4CCCC4)CC3)cc2OC)nc2cc[nH]c12` [IU-5], the half-maximal inhibitory concentration (IC50) in assay [1] is around 2880 nM; in assay [2], around 2510 nM; in assay [3] it was around 2850 nM; in assay [4] it was around 7720 nM.

Source of the values: patent US10508118B2, “Pyrimidopyrrole compounds, method for preparing the same, pharmaceutical compositions comprising the same and uses thereof” (Xiamen University, priority 2015, dated 2019).
